The target in assay [1] is T1, Akt1 (Homo sapiens, UniProt P31749). In words: Akt1 inhibition assay using GSK-3 as a substrate (immuno-blotting with anti-phospho-GSK-3α/β). It is filed as biochemical. The method, then:
Here the top 4000 compounds out of 50000 docked compounds were selected using FlexX and Drugscore (BioSolvIT). The top 4000 docked structures were further evaluated and ranked according to Goldscore and Chemscore functions (CSCORE). A list of common 200 compounds was then selected among ranked top 700 compounds according to both scoring functions (FIG. 1B). […] The remaining 100 compounds were experimentally tested up to 30 μM against Akt1. The inhibitory activity was evaluated for the selected compounds by using Z'-LYTE™ kit assay provided by Invitrogen Corporation (19). […] Corning® 384-well low volume plates (20 μl) were used. The fluorescent-enzymatic assay has been performed following the protocol provided by Invitrogen Corporation, using a fluorescent plate reader (Victor2, Perkin-Elmer). […] C) Lineweaver-Burk Km and Km(app) evaluation for Akt1. Each measurement was performed in triplicate. […] The Ki and the Km(app) were calculated at fixed inhibitor concentrations, as reported in the text. All constant values were definitely evaluated by fitting the data to the Lineweaver-Burk plot; D) Akt1 inhibition assay using GSK-3 as a substrate. Comparison of compounds 1 and 2 (Table 1) with H89 at 10 μM. E) Dose response for compound 1. […]

Assay [2] addresses T1, Akt1. Nature of the assay: Akt1 inhibition, Z'-LYTE kit fluorescent-enzymatic assay. It is filed as biochemical. As to conditions: for Ki: 10 μM compound 1, 20 μM compound 2, 50 μM compound 3, increasing ATP, Lineweaver-Burk. How it is done: Here the top 4000 compounds out of 50000 docked compounds were selected using FlexX and Drugscore (BioSolvIT). The top 4000 docked structures were further evaluated and ranked according to Goldscore and Chemscore functions (CSCORE). A list of common 200 compounds was then selected among ranked top 700 compounds according to both scoring functions (FIG. 1B). […] The remaining 100 compounds were experimentally tested up to 30 μM against Akt1. The inhibitory activity was evaluated for the selected compounds by using Z'-LYTE™ kit assay provided by Invitrogen Corporation (19). […] Corning® 384-well low volume plates (20 μl) were used. The fluorescent-enzymatic assay has been performed following the protocol provided by Invitrogen Corporation, using a fluorescent plate reader (Victor2, Perkin-Elmer). […] C) Lineweaver-Burk Km and Km(app) evaluation for Akt1. Each measurement was performed in triplicate. […] The Ki and the Km(app) were calculated at fixed inhibitor concentrations, as reported in the text. All constant values were definitely evaluated by fitting the data to the Lineweaver-Burk plot; D) Akt1 inhibition assay using GSK-3 as a substrate. Comparison of compounds 1 and 2 (Table 1) with H89 at 10 μM. E) Dose response for compound 1. Akt (10 ng of recombinant enzyme) in 25 μl 1× kinase buffer (25 mM Tris, pH 7.5; 5 mM n-glycerol phosphate; 2 mM dithiothreitol; 0.1 mM Na3VO4; and 10 mM MgCl2), was mixed with 2.5 μl DMSO (1% stock) or MPA-D (100 μM in 1% DMSO). Samples were incubated on ice for 1.5 hours at which time 1 μg of GSK-3 fusion protein (Cell Signaling), which served as the substrate, was added followed by ATP (200 μM) to each reaction mixture. After the suspensions were incubated at 30° C. for 20 min, the reaction was terminated by the addition of 3×SDS sample buffer (187.5 mM Tris-HCl, pH 6.8; 6% SDS; 30% glycerol; 150 mM dithiothreitol; and 0.03% bromophenol blue). The samples were boiled for 5 min, and the proteins were separated on a 12% SDS polyacrylamide gel and subsequently transferred to a nitrocellulose membrane. Membranes were incubated with rabbit polyclonal anti-phospho-GSK-3α/β (Ser21/9) (Cell Signaling).
For these purposes, we initially determined the Km and the Vmax of the enzymatic reaction involving the peptide provided by the Z'-LYTE™ kit assay and Akt1 by varying the concentration of ATP. The above parameters appeared to be 7.9 μM and 0.0205 μmol min^−1 mg^−1, respectively. […] Because all our inhibitors affected the Km rather than the Vmax of the reaction (FIG. 2C), they can be truly considered ATP-competitive inhibitors of Akt1.

Where [3] appears, read: FIG. 2 legend, read-out: IC50 value.
Where [4] appears, read: Table 2, derivatives of Compound 1, read-out: IC50.

The results in this text go back to patent US20120190707A1, “SELECTIVE INHIBITORS OF AKT AND METHODS OF USING SAME” (priority 2008, published 2012).

SMILES strings stand for the structures. “And” between values parts separate entries of the source, which are not always exact repeats. Equal entries are not always repeated. “Also recorded” adds a separate entry of the source. Where two headings read alike, the source gives them in different places.

T1 sequence (P31749 whole entry): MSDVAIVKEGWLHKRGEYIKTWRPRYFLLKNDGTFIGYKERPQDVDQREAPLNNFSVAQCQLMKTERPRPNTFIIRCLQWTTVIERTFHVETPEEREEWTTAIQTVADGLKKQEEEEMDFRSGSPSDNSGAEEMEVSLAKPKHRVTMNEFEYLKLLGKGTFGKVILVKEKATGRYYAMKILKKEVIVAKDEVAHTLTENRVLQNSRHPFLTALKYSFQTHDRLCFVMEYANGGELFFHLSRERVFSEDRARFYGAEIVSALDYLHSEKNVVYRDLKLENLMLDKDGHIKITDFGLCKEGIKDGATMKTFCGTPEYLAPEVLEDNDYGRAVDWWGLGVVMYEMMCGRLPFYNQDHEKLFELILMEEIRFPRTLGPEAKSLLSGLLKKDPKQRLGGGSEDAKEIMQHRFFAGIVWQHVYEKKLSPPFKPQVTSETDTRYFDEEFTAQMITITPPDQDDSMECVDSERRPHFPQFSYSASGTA

Consider `CC1=C(C#N)c2nc(N)c(C#N)c(C)c2/C1=C/c1ccc(-c2ccc(C(=O)O)c(Cl)c2)o1` [Compound 1], for which the “inhibition of GSK-3 phosphorylation” value at Akt1 [1] is on record as “low micromolar range”. Moreover, the “IC50 values (in words)” value on Akt1 [2] is listed as “low-micromolar range”. Further, on Akt1 [2], the inhibitory constant (Ki) came to 1100 nM. The IC50 is 2300 nM and 2600 nM at Akt1 [2] (setting [3]); 2600 nM at Akt1 [2] (Table 1, read-out: IC50); 2600 nM on Akt1 [2] (setting [4]). The Hill slope on Akt1 [2] (IC50 curve, FIG. 2A) stood at 1.1.
Turning to `O=C(O)c1cc(-c2ccc(C=C3C(=O)c4ccccc4C3=O)o2)ccc1O` [Compound 3], affinity on Akt1 [2] was put at a Ki of 20800 nM. Moreover, the IC50 on Akt1 [2] (setting [3]) worked out at 25100 nM.
As for `CC1=C(C#N)c2nc(N)c(C#N)c(C)c2C1=Cc1ccc(-c2ccc(C(=O)O)cc2)o1` [Compound 4], the “inhibitory activity against Akt1 kinase (in words)” value on Akt1 [2] is reported as “appreciable inhibition in the micromolar range; also recorded: limited inhibitory activity”.
In the case of `CC1=C(C#N)c2nc(N)c(C#N)c(C)c2C1=Cc1ccc(-c2cccc(C(=O)O)c2)o1` [Compound 5], on Akt1 [2], the “inhibitory activity against Akt1 kinase (in words)” value is listed as “appreciable inhibition in the micromolar range; also recorded: limited inhibitory activity”. Also, the IC50 on Akt1 [2] (setting [4]) is 60200 nM.

By Ki is commonly meant a dissociation constant, usually derived from enzyme kinetics or from competition with a known ligand. A low value points to tighter binding. As a reminder, the IC50 is the midpoint of a concentration-inhibition curve. One may read the Hill slope as the slope factor of the fitted curve.
